Source: publication PMC7614687, “Modulation of the substrate specificity of the kinase PDK1 by distinct conformations of the full-length protein*” (Science signaling, 2023)

Key:
PDK1_1-556 = target: T1, PDK1_1-556 (Homo sapiens, UniProt O15530); test: PDK1-mediated activation/phosphorylation of Akt and SGK in vitro (cascade format, Western blot); type: biochemical; conditions: absence of PIP3, HYG8 1 μM
T1 construct: effect of HYG8 on the thermal stability (ΔTm) of PDK1_1-556 (H) and PDK1_50-359 (I); His (N); made in house; host or cells: Sf9 insect cells (baculovirus)
T1 sequence (O15530 1-556): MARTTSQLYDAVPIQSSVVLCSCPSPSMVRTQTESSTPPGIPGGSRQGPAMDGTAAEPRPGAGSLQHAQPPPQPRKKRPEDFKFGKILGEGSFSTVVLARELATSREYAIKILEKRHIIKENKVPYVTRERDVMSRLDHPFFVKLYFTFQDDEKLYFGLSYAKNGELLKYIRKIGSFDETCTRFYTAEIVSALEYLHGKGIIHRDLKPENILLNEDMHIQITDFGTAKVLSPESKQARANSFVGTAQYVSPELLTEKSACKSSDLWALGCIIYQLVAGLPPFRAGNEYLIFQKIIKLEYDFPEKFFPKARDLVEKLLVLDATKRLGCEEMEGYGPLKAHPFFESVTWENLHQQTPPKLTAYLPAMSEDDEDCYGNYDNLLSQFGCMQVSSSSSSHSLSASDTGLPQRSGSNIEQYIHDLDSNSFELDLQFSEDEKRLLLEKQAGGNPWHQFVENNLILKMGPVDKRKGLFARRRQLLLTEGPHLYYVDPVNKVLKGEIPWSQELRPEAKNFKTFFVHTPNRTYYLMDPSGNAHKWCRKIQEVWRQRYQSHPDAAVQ
Protocol: PDK1 activity was also assessed in a cascade format that measures the ability of PDK1 to activate its substrates GST-ΔN-SGK [S422D], GST-Akt [S473D] and GST-Akt ΔPH [S473D], as previously performed ([24], [28]). SGK and Akt proteins mutated at the HM phosphorylation site to Asp can be activated by phosphorylation at the activation loop by PDK1. In brief, we preincubated SGK or Akt (0.5 μg) with 10 ng or 100 ng of PDK1 at room temperature (22°C) in a buffer containing 50 mM Tris pH 7.5, 0.05 mg/ml BSA, 0.1% β-mercaptoethanol, 10 mM MgCl2, 100 μM ATP (20 μl). We measured the activity of SGK or Akt by adding 30 μl buffer containing the polypeptide substrate KK-Crosstide ([…]; 100 μM) and [γ^32P]ATP (100 μM). […]
PDK1 activity was also measured by incubating PDK1 with protein kinase substrates and measuring their phosphorylation by Western blot using phospho-specific antibodies to the activation loop phosphorylation site, essentially as previously performed ([24]), with the modification that the secondary antibodies were fluorescent for improved quantification. […] The basal phosphorylation of substrates was determined in the absence of PDK1, while “maximal” phosphorylation corresponds to the phosphorylation of substrates with excess PDK1 (10 nM PDK1 for Akt/PKB substrates and 1 nM PDK1 for SGK). […] Fluorescent signals were measured using Odyssey Fc (Licor). […]

[1] = target: T2, full-length PDK1 (GST-PDK1_1-556) (Homo sapiens, UniProt O15530); test: Lipid overlay assay, di-C18-PIP3, full-length PDK1; type: binding
T2 construct: made in house; host or cells: HEK293 cells (transient transfection of pEBG2T)
T2 sequence (O15530 1-556): T1 sequence (O15530 1-556)
Protocol: Dots containing 2-1000 picomoles of di-C18-PIP3 ([70]) were prepared by spotting 1 μL of serial dilution stock solutions (2-1000 μM dissolved in a 1:2:0.8 by volume mixture of chloroform/methanol/water) onto Hybond-C extra membrane (GE Healthcare), which were dried at room temperature. Membranes were incubated with blocking buffer (50 mm Tris-HCl buffer pH 7.5, 2 mg/ml fatty acid free bovine serum albumin, 150 mM NaCl, and 0.1% (v/v) Tween 20) for 1 h at room temperature. Membranes were then incubated with 10 nM protein/10 μM inhibitor mixes in blocking buffer with gentle rocking overnight at 4 °C. Membranes were washed 10 times over 1 h at room temperature using TBST buffer (50 mM Tris-HCl pH 7.5, 150 mM NaCl, 0.1% (v/v) Tween 20) before being incubated for 1 h with 1:2000 dilution of rabbit recombinant anti-PDK1 monoclonal antibody (New England Biolabs). Membranes were washed and incubated with 1:2000 dilution of anti-rabbit HRP conjugated antibody (Invitrogen/Thermo Fisher) for 1 h at room temperature. Finally, after washing, proteins bound to the membranes were detected using Novex ECL chemiluminescent reagent (Invitrogen/Thermo Fisher) and developed on X-ray film.

SMILES | activation of Akt and Akt ΔPH by PDK1 (PDK1_1-556) | activation of SGK by PDK1 (PDK1_1-556) | displacement of the interaction between PIP3 and full-length PDK1_1-556 [1]
O=C(O[C@H]1[C@@H](OP(=O)(O)O)[C@H](OP(=O)(O)O)[C@@H](OP(=O)(O)O)[C@H](OP(=O)(O)O)[C@H]1OP(=O)(O)O)c1ccccc1 [HYG8, 2-O-benzoyl-IP5] | selectively inhibited | did not inhibit | 
CCCCO[C@H]1[C@@H](OP(=O)(O)O)[C@H](OP(=O)(O)O)[C@@H](OP(=O)(O)O)[C@H](OP(=O)(O)O)[C@H]1OP(=O)(O)O [HYG14, 2-O-butyl-IP5] |  |  | much more potent
